Assay results: patent US20030138812A1, “Assessment of ecosystem health by evaluating multiple biomarkers in a nonhuman organism” (priority 2000, published 2003)
Like-named read-outs stand apart in the source and are kept apart here. Marks after values point to notes of the source that are not given here.

Experiments:
[1] = system: Ilyanassa obsoleta (mud snails); assay: Atrazine exposure: biomarker responses in mud snails; type: in vivo; settings: 8-hour exposure
Protocol: Tanks were aerated with air stones. Snails were fed commercially available algal pellets. […]
(§1) Samples for each assay were analyzed in triplicate.
(§2) Sample was then subjected to another protein concentration assay.
(§3) All samples were analyzed in triplicate.

[2] = system: Palaeomonetes pugio (grass shrimp); assay: Atrazine stress: biomarker responses in grass shrimp; type: in vivo; settings: for B-crystallin / Metallo. (metallothionein) / SOD (Mn SOD) / ubiquitin: 8-hour exposure
Protocol: (§4) During the seven-day acclimation, grass shrimp were subject to a […] photosynthetic-active-radiation 14 hour photoperiod at 22° C. […] Dissolved oxygen, ammonia content, and temperature were continually monitored throughout the seven-day chamber acclimation.
Atrazine stress—Grass shrimp were exposed to […], or 1 mg/L of an acetone stock of technical grade atrazine (99%).
(§5) Samples were vortexed for 30 seconds and then centrifuged at 10,000× g for 5 minutes. The supernatant was placed in a new tube for LPO and GSH analyses. Protein concentration of samples were assayed by the method of Ghosh et al. (1988), supra.
(§6) Samples were then boiled for 3 minutes, allowed to sit at 25° C. for 5 minutes, and then centrifuged at 10,000× g for 5 minutes. […] The sample was then subjected to another protein concentration assay.
(§7) Samples were analyzed for LPO and total GSH content following the manufacturer's instruction. Samples for each assay were analyzed in triplicate, and sample means provided independent unit of statistical analysis.
(§8) All samples were analyzed in triplicate. ELISPOT technique on nitrocellulose membrane was employed using a dot blot apparatus.

[3] = system: Palaeomonetes pugio (grass shrimp); type: in vivo
Description: Purified protein of each cellular parameter was run along side control and treated samples.

[4] = system: Ilyanassa obsoleta (mud snails); type: in vivo
Protocol: Tanks were aerated with air stones. Snails were fed commercially available algal pellets.
The solvent carrier was water.
No evidence of either was found.
as §1, §2, §3

[5] = system: Ilyanassa obsoleta (mud snails)
Protocol: To determine that the antibodies bound to their specific targets, preliminary experiments were conducted to ensure the validity of the antibody assays. Snails were exposed either to high temperature, cadmium, ethanol, or acetone, homogenized in an SDS/50 mM dithiothreitol buffered solution, subjected to SDS-PAGE, immunoblotted to PVDF membrane, and assayed with at least 3 different antibodies per cellular parameter. […] Purified protein of each cellular parameter was run beside control and treated samples.

[6] = system: Palaeomonetes pugio (grass shrimp); assay: Cadmium stress: biomarker responses in grass shrimp; type: in vivo; settings: for Cyt. P450 (cytochrome P450 2E1) / SOD (Mn SOD): 8-hour exposure
Protocol: as §4
Cadmium stress—Grass shrimp were subjected to an 8-hour exposure to 0 M, […], and […] cadmium chloride. The solvent carrier was water.
as §5, §6, §7, §8

[7] = system: Ilyanassa obsoleta (mud snails); assay: Endosulfan exposure: biomarker responses in mud snails; settings: 8-hour exposure
[8] = control to high atrazine treatments, grass shrimp
[9] = high: 50 M cadmium chloride, 8-hour exposure
[10] = low: 5 M cadmium chloride, 8-hour exposure

Structure (SMILES): CCNc1nc(Cl)nc(NC(C)C)n1 [Atrazine, atrazine]
- B-crystallin ([1]; high: 1 mg/L atrazine): 25 ± 2.1 pg Hsp or B-crystallin/ g total protein
- Cyt. P450 (cytochrome P450 2E1 homologue) ([1]; high: 1 mg/L atrazine): 17.8 ± 3.07 relative protein concentrations
- GSH ([1]; high: 1 mg/L atrazine): 83 ± 3.1 mM GSH/ g total protein
- Hsp22 ([1]; high: 1 mg/L atrazine): 6 ± 1.9 pg Hsp or B-crystallin/ g total protein
- Hsp60 ([1]; high: 1 mg/L atrazine): 0.158 ± 0.0086 pg Hsp or B-crystallin/ g total protein
- Hsp70 ([1]; high: 1 mg/L atrazine): 121.8 ± 6.08 pg Hsp or B-crystallin/ g total protein
- LPO ([1]; high: 1 mg/L atrazine): 1.32 ± 0.037 mM LPO/mg total protein
- Metallo (metallothionein) ([1]; high: 1 mg/L atrazine): 8.6 ± 1.72 ng metallothionein/mg total protein
- Mn SOD ([1]; high: 1 mg/L atrazine): 7.8 ± 1.66 relative protein concentrations
- ubiquitin ([1]; high: 1 mg/L atrazine): 41 ± 3.7 ng ubiquitin/ g total protein
- B-crystallin ([1]; low: 1 g/L atrazine): 29 ± 1.3 pg Hsp or B-crystallin/ g total protein
- Cyt. P450 (cytochrome P450 2E1 homologue) ([1]; low: 1 g/L atrazine): 18.0 ± 2.90 relative protein concentrations
- GSH ([1]; low: 1 g/L atrazine): 85 ± 3.6 mM GSH/ g total protein
- Hsp22 ([1]; low: 1 g/L atrazine): 6 ± 2.0 pg Hsp or B-crystallin/ g total protein
- Hsp70 ([1]; low: 1 g/L atrazine): 123.4 ± 7.05 pg Hsp or B-crystallin/ g total protein
- LPO ([1]; low: 1 g/L atrazine): 1.16 ± 0.040 mM LPO/mg total protein
- Metallo (metallothionein) ([1]; low: 1 g/L atrazine): 18.2 ± 2.06 ng metallothionein/mg total protein
- Mn SOD ([1]; low: 1 g/L atrazine): 9.0 ± 1.76 relative protein concentrations
- ubiquitin ([1]; low: 1 g/L atrazine): 42 ± 3.9 ng ubiquitin/ g total protein
- Levels of LPO decreased [2, 8]: 38%
- levels of Hsp60 increased [2, 8]: nearly five-fold
- B-crystallin ([2]; high: 1 mg/L atrazine): 190 ± 27 ng Hsp or B-crystallin/ g total protein
- Metallo. (metallothionein) ([2]; high: 1 mg/L atrazine): 1.7 ± 0.35 ng metallothionein/mg total protein
- SOD (Mn SOD) ([2]; high: 1 mg/L atrazine): 7.9 ± 1.86 g SOD/ mg total protein
- B-crystallin ([2]; low: 1 g/L atrazine): 290 ± 27 ng Hsp or B-crystallin/ g total protein
- Metallo. (metallothionein) ([2]; low: 1 g/L atrazine): 1.4 ± 0.17 ng metallothionein/mg total protein
- SOD (Mn SOD) ([2]; low: 1 g/L atrazine): 4.3 ± 0.23 g SOD/ mg total protein
- ubiquitin ([2]; low: 1 g/L atrazine): 1.44 ± 0.068 nanog ubiquitin/ g total protein
- B-crystallin ([2]; medium: 500 g/L atrazine): 250 ± 45 ng Hsp or B-crystallin/ g total protein
- Metallo. (metallothionein) ([2]; medium: 500 g/L atrazine): 1.8 ± 0.45 ng metallothionein/mg total protein
- SOD (Mn SOD) ([2]; medium: 500 g/L atrazine): 4.6 ± 1.61 g SOD/ mg total protein
- ubiquitin ([2]; medium: 500 g/L atrazine): 1.38 ± 0.066 nanog ubiquitin/ g total protein

Structure (SMILES): [Cl][Cd][Cl] [Cadmium Chloride, cadmium chloride]
- induction of protein detected by Mn SOD antibody (about 23 kDa) ([3]; immunoblot): inducible by both heat stress and cadmium
- induction of proteins detected by Cytochrome P450 2E1 antibody (ca. 53 kDa) ([3]; immunoblot): did not elicit significant accumulation
- induction of proteins detected by metallothionein antibody (ca. 7 k to 12 kDa) ([3]; immunoblot): cadmium-inducible
- Metallothionine increase in mean levels compared to the control ([4]; high CdCl2 concentrations, mud snails): more than a six-fold increase
- Cyt. P450 (cytochrome P450 2E1 homologue) [4, 9]: 27.4 ± 3.14 relative protein concentrations
- LPO [4, 9]: 1.16 ± 0.093 mM LPO/mg total protein
- Cyt. P450 (cytochrome P450 2E1 homologue) [4, 10]: 28.6 ± 3.11 relative protein concentrations
- Hsp60 [4, 10]: 0.419^b ± pg Hsp or B-crystallin/ g total protein
- LPO [4, 10]: 1.1 mM LPO/mg total protein
- induction of protein detected by Cytochrome P450 2E1 antibody (ca. 50 kDa) ([5]; immunoblot): did not elicit significant accumulation
- induction of protein detected by Mn SOD antibody (about 26 kDa) ([5]; immunoblot): inducible by both heat stress and cadmium
- Metallothionine increase in mean levels compared to the control ([6]; high CdCl2 concentrations, grass shrimp): more than a six-fold increase
- Cyt. P450 (cytochrome P450 2E1) ([6]; high: 50 uM cadmium chloride): 12.9 ± 1.26 relative protein concentrations
- SOD (Mn SOD) ([6]; high: 50 uM cadmium chloride): 4.0 ± 0.16 g SOD/ mg total protein
- Cyt. P450 (cytochrome P450 2E1) ([6]; low: 1 uM cadmium chloride): 14.5 ± 1.19 relative protein concentrations
- SOD (Mn SOD) ([6]; low: 1 uM cadmium chloride): 3.3 ± 0.12 g SOD/ mg total protein
- Cyt. P450 (cytochrome P450 2E1) ([6]; medium: 5 uM cadmium chloride): 13.4 ± 1.48 relative protein concentrations
- SOD (Mn SOD) ([6]; medium: 5 uM cadmium chloride): 4.3 ± 0.80 g SOD/ mg total protein

Structure (SMILES): O=S1OCC2C(CO1)C1(Cl)C(Cl)=C(Cl)C2(Cl)C1(Cl)Cl (stereo not shown) [Endosulfan, endosulfan]
- B-crystallin ([7]; high: 1 g/L endosulfan): 13 ± 2.7 pg Hsp or B-crystallin/ g total protein
- Hsp26 ([7]; high: 1 g/L endosulfan): 23 ± 3.3 pg Hsp or B-crystallin/ g total protein
- Metallo. (metallothionein) ([7]; high: 1 g/L endosulfan): 14 ± 3.11 ng metallothionein/mg total protein
- B-crystallin ([7]; low: 50 ng/L endosulfan): 12 ± 3.1 pg Hsp or B-crystallin/ g total protein
- Hsp26 ([7]; low: 50 ng/L endosulfan): 20 ± 12.673 pg Hsp or B-crystallin/ g total protein
- Metallo. (metallothionein) ([7]; low: 50 ng/L endosulfan): 19.4 ± 1.99 ng metallothionein/mg total protein
- B-crystallin ([7]; medium: 500 ng/L endosulfan): 11 ± 3.9 pg Hsp or B-crystallin/ g total protein
- Hsp26 ([7]; medium: 500 ng/L endosulfan): 19 ± 5.9 pg Hsp or B-crystallin/ g total protein
- Metallo. (metallothionein) ([7]; medium: 500 ng/L endosulfan): 22.2 ± 3.15 ng metallothionein/mg total protein

Structure (SMILES): CC(C)=O [acetone]
- induction of Hsp70 homologues ([3]; immunoblot): inducible by all treatments except ethanol and acetone
- induction of protein detected by Mn SOD antibody (about 23 kDa) ([3]; immunoblot): not by exposure to ethanol or acetone
- induction of proteins detected by Cytochrome P450 2E1 antibody (ca. 53 kDa) ([3]; in vivo): ethanol- and acetone-inducible
- induction of Hsp70 homologues ([5]; immunoblot): inducible by all treatments except ethanol and acetone
- induction of protein detected by Mn SOD antibody (about 26 kDa) ([5]; immunoblot): not by exposure to acetone
- induction of protein detected by Cytochrome P450 2E1 antibody (ca. 50 kDa) ([5]; in vivo): ethanol- and acetone-inducible

Structure (SMILES): CCO [ethanol]
- induction of Hsp70 homologues ([3]; in vivo): inducible by all treatments except ethanol and acetone
- induction of protein detected by Mn SOD antibody (about 23 kDa) ([3]; in vivo): not by exposure to ethanol or acetone
- induction of proteins detected by Cytochrome P450 2E1 antibody (ca. 53 kDa) ([3]; in vivo): ethanol- and acetone-inducible
- induction of Hsp70 homologues ([5]; in vivo): inducible by all treatments except ethanol and acetone
- induction of protein detected by Cytochrome P450 2E1 antibody (ca. 50 kDa) ([5]; in vivo): ethanol- and acetone-inducible
